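Method: 48-hour compound exposure of cells in 96-well plates, five concentrations, linear interpolation of endpoints. GI50 is the concentration that inhibits growth by half. The concentration for full growth arrest is given as TGI.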
The compounds below were run on HL-60(TB) leukemia (assay: NCI anticancer screen, dose series, 48 h).

Structure (SMILES)	TGI [µM]	GI50 [µM]
COc1cc2c(cc1OC)C(c1ccccc1CCCCl)=NCC2	> 100	–
NC(Cc1c[nH]c2c(O)cccc12)C(=O)O (stereo unspecified)	> 100	> 100

What follows are compounds tested on OVCAR-5 ovarian (assay: NCI anticancer screen, dose series, 48 h).

Structure (SMILES)	GI50 [µM]	TGI [µM]
O=S(=O)(NC1=NCCN1C(=S)SN1CCn2c1nsc2=S)c1ccc(OC(F)(F)F)cc1	21.8	36.7
CCOC(=O)N1CCC2(CC1)C[C@](C)(C(C)=O)C(C)O2 (stereo partly specified)	–	> 100
COc1cc2c(cc1OC)C(c1ccccc1CCCCl)=NCC2	–	> 100
COc1cc([C@@H]2c3cc4c(cc3[C@@H](Nc3ccc([N+](=O)[O-])cc3C(=O)c3ccccc3)[C@H]3COC(=O)[C@H]23)OCO4)cc(OC)c1OC	–	> 100
NC(Cc1c[nH]c2c(O)cccc12)C(=O)O (stereo unspecified)	> 100	> 100

The compounds below were run on TK-10 renal (assay: NCI anticancer screen, dose series, 48 h).

Structure (SMILES)	GI50 [µM]	TGI [µM]
O=S(=O)(NC1=NCCN1C(=S)SN1CCn2c1nsc2=S)c1ccc(OC(F)(F)F)cc1	11.3	24.6
CCOC(=O)N1CCC2(CC1)C[C@](C)(C(C)=O)C(C)O2 (stereo partly specified)	–	> 100
COc1cc2c(cc1OC)C(c1ccccc1CCCCl)=NCC2	–	> 100
COc1cc([C@@H]2c3cc4c(cc3[C@@H](Nc3ccc([N+](=O)[O-])cc3C(=O)c3ccccc3)[C@H]3COC(=O)[C@H]23)OCO4)cc(OC)c1OC	–	> 100
NC(Cc1c[nH]c2c(O)cccc12)C(=O)O (stereo unspecified)	> 100	> 100

What follows are compounds tested on UACC-62 melanoma (assay: NCI anticancer screen, dose series, 48 h).

Structure (SMILES)	GI50 [µM]	TGI [µM]
O=S(=O)(NC1=NCCN1C(=S)SN1CCn2c1nsc2=S)c1ccc(OC(F)(F)F)cc1	11.6	24.4
CCOC(=O)N1CCC2(CC1)C[C@](C)(C(C)=O)C(C)O2 (stereo partly specified)	–	> 100
COc1cc2c(cc1OC)C(c1ccccc1CCCCl)=NCC2	–	> 100
COc1cc([C@@H]2c3cc4c(cc3[C@@H](Nc3ccc([N+](=O)[O-])cc3C(=O)c3ccccc3)[C@H]3COC(=O)[C@H]23)OCO4)cc(OC)c1OC	–	> 100
NC(Cc1c[nH]c2c(O)cccc12)C(=O)O (stereo unspecified)	> 100	> 100

The compounds below were run on UACC-257 melanoma (assay: NCI anticancer screen, dose series, 48 h).

Structure (SMILES)	GI50 [µM]	TGI [µM]
O=S(=O)(NC1=NCCN1C(=S)SN1CCn2c1nsc2=S)c1ccc(OC(F)(F)F)cc1	15.5	30
CCOC(=O)N1CCC2(CC1)C[C@](C)(C(C)=O)C(C)O2 (stereo partly specified)	–	> 100
COc1cc2c(cc1OC)C(c1ccccc1CCCCl)=NCC2	–	> 100
COc1cc([C@@H]2c3cc4c(cc3[C@@H](Nc3ccc([N+](=O)[O-])cc3C(=O)c3ccccc3)[C@H]3COC(=O)[C@H]23)OCO4)cc(OC)c1OC	–	> 100
NC(Cc1c[nH]c2c(O)cccc12)C(=O)O (stereo unspecified)	> 100	> 100

These compounds were tested on MALME-3M melanoma (assay: NCI anticancer screen, dose series, 48 h).

Structure (SMILES)	GI50 [µM]	TGI [µM]
O=S(=O)(NC1=NCCN1C(=S)SN1CCn2c1nsc2=S)c1ccc(OC(F)(F)F)cc1	5.25	32.7
CCOC(=O)N1CCC2(CC1)C[C@](C)(C(C)=O)C(C)O2 (stereo partly specified)	–	> 100
COc1cc([C@@H]2c3cc4c(cc3[C@@H](Nc3ccc([N+](=O)[O-])cc3C(=O)c3ccccc3)[C@H]3COC(=O)[C@H]23)OCO4)cc(OC)c1OC	–	> 100
NC(Cc1c[nH]c2c(O)cccc12)C(=O)O (stereo unspecified)	> 100	> 100

These compounds were tested on HT29 colon (assay: NCI anticancer screen, dose series, 48 h).

Structure (SMILES)	GI50 [µM]	TGI [µM]
O=S(=O)(NC1=NCCN1C(=S)SN1CCn2c1nsc2=S)c1ccc(OC(F)(F)F)cc1	11.4	> 100
CCOC(=O)N1CCC2(CC1)C[C@](C)(C(C)=O)C(C)O2 (stereo partly specified)	–	> 100
COc1cc2c(cc1OC)C(c1ccccc1CCCCl)=NCC2	–	> 100
COc1cc([C@@H]2c3cc4c(cc3[C@@H](Nc3ccc([N+](=O)[O-])cc3C(=O)c3ccccc3)[C@H]3COC(=O)[C@H]23)OCO4)cc(OC)c1OC	–	> 100
NC(Cc1c[nH]c2c(O)cccc12)C(=O)O (stereo unspecified)	> 100	> 100

What follows are compounds tested on HCT-116 colon (assay: NCI anticancer screen, dose series, 48 h).

Structure (SMILES)	GI50 [µM]	TGI [µM]
O=S(=O)(NC1=NCCN1C(=S)SN1CCn2c1nsc2=S)c1ccc(OC(F)(F)F)cc1	6.15	22.3
COc1cc2c(cc1OC)C(c1ccccc1CCCCl)=NCC2	–	> 100
COc1cc([C@@H]2c3cc4c(cc3[C@@H](Nc3ccc([N+](=O)[O-])cc3C(=O)c3ccccc3)[C@H]3COC(=O)[C@H]23)OCO4)cc(OC)c1OC	–	> 100
NC(Cc1c[nH]c2c(O)cccc12)C(=O)O (stereo unspecified)	> 100	> 100

The compounds below were run on HOP-62 NSCLC (assay: NCI anticancer screen, dose series, 48 h).

Structure (SMILES)	GI50 [µM]	TGI [µM]
O=S(=O)(NC1=NCCN1C(=S)SN1CCn2c1nsc2=S)c1ccc(OC(F)(F)F)cc1	16.3	33
CCOC(=O)N1CCC2(CC1)C[C@](C)(C(C)=O)C(C)O2 (stereo partly specified)	–	> 100
COc1cc2c(cc1OC)C(c1ccccc1CCCCl)=NCC2	–	> 100
COc1cc([C@@H]2c3cc4c(cc3[C@@H](Nc3ccc([N+](=O)[O-])cc3C(=O)c3ccccc3)[C@H]3COC(=O)[C@H]23)OCO4)cc(OC)c1OC	–	> 100
NC(Cc1c[nH]c2c(O)cccc12)C(=O)O (stereo unspecified)	> 100	> 100

The compounds below were run on SN12C renal (assay: NCI anticancer screen, dose series, 48 h).

Structure (SMILES)	GI50 [µM]	TGI [µM]
O=S(=O)(NC1=NCCN1C(=S)SN1CCn2c1nsc2=S)c1ccc(OC(F)(F)F)cc1	14.5	30.3
COc1cc2c(cc1OC)C(c1ccccc1CCCCl)=NCC2	–	> 100
COc1cc([C@@H]2c3cc4c(cc3[C@@H](Nc3ccc([N+](=O)[O-])cc3C(=O)c3ccccc3)[C@H]3COC(=O)[C@H]23)OCO4)cc(OC)c1OC	–	> 100
NC(Cc1c[nH]c2c(O)cccc12)C(=O)O (stereo unspecified)	> 100	> 100

These compounds were tested on PC-3 prostate (assay: NCI anticancer screen, dose series, 48 h).

Structure (SMILES)	GI50 [µM]	TGI [µM]
O=S(=O)(NC1=NCCN1C(=S)SN1CCn2c1nsc2=S)c1ccc(OC(F)(F)F)cc1	13.1	37.2
CCOC(=O)N1CCC2(CC1)C[C@](C)(C(C)=O)C(C)O2 (stereo partly specified)	–	> 100
COc1cc2c(cc1OC)C(c1ccccc1CCCCl)=NCC2	–	> 100
COc1cc([C@@H]2c3cc4c(cc3[C@@H](Nc3ccc([N+](=O)[O-])cc3C(=O)c3ccccc3)[C@H]3COC(=O)[C@H]23)OCO4)cc(OC)c1OC	–	> 100
NC(Cc1c[nH]c2c(O)cccc12)C(=O)O (stereo unspecified)	> 100	> 100

The compounds below were run on LOX IMVI melanoma (assay: NCI anticancer screen, dose series, 48 h).

Structure (SMILES)	GI50 [µM]	TGI [µM]
O=S(=O)(NC1=NCCN1C(=S)SN1CCn2c1nsc2=S)c1ccc(OC(F)(F)F)cc1	8.6	22.9
CCOC(=O)N1CCC2(CC1)C[C@](C)(C(C)=O)C(C)O2 (stereo partly specified)	–	> 100
COc1cc([C@@H]2c3cc4c(cc3[C@@H](Nc3ccc([N+](=O)[O-])cc3C(=O)c3ccccc3)[C@H]3COC(=O)[C@H]23)OCO4)cc(OC)c1OC	–	> 100
NC(Cc1c[nH]c2c(O)cccc12)C(=O)O (stereo unspecified)	> 100	> 100

What follows are compounds tested on DU-145 prostate (assay: NCI anticancer screen, dose series, 48 h).

Structure (SMILES)	GI50 [µM]	TGI [µM]
O=S(=O)(NC1=NCCN1C(=S)SN1CCn2c1nsc2=S)c1ccc(OC(F)(F)F)cc1	2.69	12.1
COc1cc2c(cc1OC)C(c1ccccc1CCCCl)=NCC2	–	> 100
COc1cc([C@@H]2c3cc4c(cc3[C@@H](Nc3ccc([N+](=O)[O-])cc3C(=O)c3ccccc3)[C@H]3COC(=O)[C@H]23)OCO4)cc(OC)c1OC	–	> 100
NC(Cc1c[nH]c2c(O)cccc12)C(=O)O (stereo unspecified)	> 100	> 100

Each compound was assayed on HOP-92 NSCLC (assay: NCI anticancer screen, dose series, 48 h).

Structure (SMILES)	GI50 [µM]	TGI [µM]
O=S(=O)(NC1=NCCN1C(=S)SN1CCn2c1nsc2=S)c1ccc(OC(F)(F)F)cc1	25.1	44.1
CCOC(=O)N1CCC2(CC1)C[C@](C)(C(C)=O)C(C)O2 (stereo partly specified)	–	> 100
COc1cc2c(cc1OC)C(c1ccccc1CCCCl)=NCC2	–	> 100
COc1cc([C@@H]2c3cc4c(cc3[C@@H](Nc3ccc([N+](=O)[O-])cc3C(=O)c3ccccc3)[C@H]3COC(=O)[C@H]23)OCO4)cc(OC)c1OC	–	> 100
NC(Cc1c[nH]c2c(O)cccc12)C(=O)O (stereo unspecified)	> 100	> 100

Each compound was assayed on NCI/ADR-RES ovarian (assay: NCI anticancer screen, dose series, 48 h).

Structure (SMILES)	GI50 [µM]	TGI [µM]
O=S(=O)(NC1=NCCN1C(=S)SN1CCn2c1nsc2=S)c1ccc(OC(F)(F)F)cc1	20.5	> 100
CCOC(=O)N1CCC2(CC1)C[C@](C)(C(C)=O)C(C)O2 (stereo partly specified)	–	> 100
COc1cc2c(cc1OC)C(c1ccccc1CCCCl)=NCC2	–	> 100
COc1cc([C@@H]2c3cc4c(cc3[C@@H](Nc3ccc([N+](=O)[O-])cc3C(=O)c3ccccc3)[C@H]3COC(=O)[C@H]23)OCO4)cc(OC)c1OC	–	> 100
NC(Cc1c[nH]c2c(O)cccc12)C(=O)O (stereo unspecified)	> 100	> 100

Source: PubChem BioAssay (NCI)
